Experimental findings from patent publication US9205073B2, “Method for treating virus infection using derivative of aniline” (CHINA MEDICAL UNIVERSITY, priority 2014, dated 2015) are described below.

For data set [1], the system named is PKR, OAS, IFN-α and interferon receptor. Description: Real-time PCR of anti-virus gene expression in JEV T1P1-infected TE671 cells. The class given is cell-based. To be noted: JEV T1P1-infected TE671 cells (M.O.I.=1), 8 hours, compound 125. The method, then:
TE671 cells were cultured in a 6-well culture plate in accordance with the experimental conditions. The next day, TE671 cells were infected with the JEV T1P1 virus strain (M.O.I.=1), and various concentrations (the final concentration of compound 1 were about 0 or 125 respectively) of compound 1 were added into different wells simultaneously. The cells were then incubated in an incubator (37° C., 5% CO2) for 8 hours, and then collected. The cells were re-suspended with PBS and precipitated by centrifugation (2000 rpm, 5 minutes), and then extracted by Pure Link RNA Mini Kit to obtain the RNA. If the obtained RNA was desired to be stored at −20° C., then the RNA would have to reverse transcribed into cDNA using the following reverse transcription PCR (RT-PCR) steps: i) 11 μl RNA was placed into a microtube, and put into a 55° C. […]
The expression of anti-virus genes was analyzed by real-time PCR. […] Then, the amount of fluorescence of each cycle was determined by ABI Prism 7500 software. The fold difference of each gene as compared to the control group was calculated by using Ct to calculate ΔCt and ΔΔCt (i.e., ΔCt=Ct. exp−Ct. control, ΔΔCt=ΔCt. exp−ΔCt. mock). Then, 2^−ΔΔCt can thereby be calculated.

The test system of a further data set is JEV T1P1. Briefly: Apoptosis test (Annexin V/PI flow cytometry), JEV T1P1-infected TE671 cells. The class given is cell-based, Japanese encephalitis virus. As to conditions: JEV T1P1 infection 36 hours, compound 125 μM; infected without compound 20.1%. The method, then:
BHK-21 cells and/or TE671cells were separately cultured in a 24-well culture plate, with an initial density of 3×10^4 per well, and with 1 ml of 2% FBS-containing MEM medium per well. The cells were incubated in an incubator (37° C., 5% CO2) overnight, and the medium was removed until the cells adhered to the plate. Then, fresh 2% FBS-containing MEM medium was simultaneously added into each well of the culture plate. The cells were infected with a JEV T1P1 virus strain, wherein the amount of JEV T1P1 used to infect BHK-21 cells was a multiplicity of infection (M.O.I.)=0.1, and the amount of JEV T1P1 used to infect TE671 cells was M.O.I.=0.05. Different concentrations of compound 1 (final concentrations were 0, 2.5, 25 and 125 μM, respectively) were added into different wells. The culture plate was placed into an incubator (37° C., 5% CO2) and maintained therein.
BHK-21 cells and TE 671 cells were washed with PBS after being infected with the JEV T1P1 virus strain for 36 hours in the above experiment (1). Then, PBS was removed. Trypsin-EDTA (150 μl) was added into each well. The cells were incubated in an incubator at 37° C. for 3 minutes. Then, 1 ml MEM medium was added into each well to neutralize EDTA. […] The cells were maintained in the dark for 5 to 10 minutes, and then analyzed by flow cytomerty.

Data set [2] can be described thus: MTT assay, cell survival / CC50 in RD cells. The class given is cell-based. To be noted: human, read-out: concentration of 50% cytotoxicity (CC50). The method, then: (§1) In this example, 3-(4,5-dimethylthiazol-2-yl)-2,5-diphenyl tetrazolium bromide (MTT) was used to determine if the survival rate of BHK-21 cells, TE671cells and RD cells would be influenced when being treated with different concentrations of compound 1 prepared in Example 1. The concentration of 50% cytotoxicity (CC50) of compound 1 in BHK-21 cells, TE671cells and RD cells was also calculated.
(§2) MTT is a water-soluble tetrazolium salt which can react in the mitochondrial respiratory chain in living cells to metabolize and reduce the tetrazolium bromide shown in the structure of MTT and to form an water-insoluble purple crystal formazan under the reaction of succinate dehydrogenase (SDH) and cytochrome c (cyt c). The amount of the produced crystal is directly proportional to the number of living cells (because the SDH will disappear from dead cells, and thus, the MTT cannot be reduced). Furthermore, a mitochondrium is an organelle in cells that is most sensitive to the environment, and thus, the MTT assay can serve as a marker for the survival rate of cells treated by the drug.
(§3) BHK-21 cells, TE671cells and RD cells were cultured in a 96-well culture plate, respectively, with an initial density of 3×10^3 per well, and with 100 μl of 2% FBS-containing MEM medium per well. […] The absorbances of the samples were measured by ELISA at a wavelength of 570/630 nm.

The nature of data set [3]: MTT assay, cell survival / CC50 in BHK-21 cells. The class given is cell-based. To be noted: hamster, read-out: concentration of 50% cytotoxicity (CC50). As to the method: as §1, §2, §3

SMILES strings stand for the structures.

Regarding `CCOC(=O)C1=C(Nc2cc(C)cc(C)c2)OCC1=O` [Compound 1, ethyl 2-(3′,5′-dimethylanilino)-4-oxo-4,5-dihydrofuran-3-carboxylate], in data set [1], the “relative gene expression levels of PKR, OAS, IFN-α and interferon receptor” value is listed as “increase”. The “ratio of TE671 cells getting into late apoptosis” value in the data set on JEV T1P1 is 4.7%. Moreover, the results for the CC50 at 48 h in data set [2] and in data set [3] were 222 µM and more than 500 µM, respectively.
